From patent US9592260B2, “Cancer therapy with a parvovirus combined with an HDAC inhibitor” (priority 2010, dated 2017)

Legend:
[1] = tested on: cervical carcinoma cell cultures (HeLa, CaSki, SiHa, CxCa); assay: LDH assay, H-1PV with or without HDACI, statements over all cervical cultures; assay type: cell-based, human; conditions: VPA 1 mM, 72 h, FIG. 5
Description: Cervical cancer derived cell lines (HeLa, CaSki, SiHa) and non-established cervical cancer cell cultures (CxCa) were infected with H-1PV at the indicated MOIs (pfu/cell) and grown for 72 h in the presence (grey bars) or absence (white bars) of VPA (1 mM). After incubation, cell lysis was evaluated by measuring the release of lactate dehydrogenase (LDH). Hatched bars at the right hand side of each chart show the minimal dose of H-1PV able to kill 90-100% of the cancer cells as monotherapy.
The sub-lethal dose of VPA boosted parvovirus-induced cell killing in a synergistic manner, increasing by up to 50-100%. […] Similar results were also obtained combining H-1PV with NaB, TSA or SaHa (Table 2).

HeLa established tumors = assay type: in vivo, nude rat; conditions: VPA 100 mg/kg; compared with mock-treated controls
Text: Data shown represents the average values with standard deviation bars.

AsPC-1 = assay: LDH assay, H-1PV with or without VPA, PDAC cells; conditions: AsPC-1 (printed AP-1), 72 hours, H-1PV at various MOI, FIG. 7
Description: (§1) APC-1 and Capan-1 cells were plated in 96 wells plates (2000 cells/well). After 16 hours, cell were infected with H-1PV at the indicated MOI and grown in the presence or absence of VPA for additional 72 hours. Cellular lysis was measured by LDH assay.
(§2) Parvovirus cytotoxicity was measured by evaluating the release of lactate dehydrogenase in the medium using the CytoTox 96 kit from Promega (Mannheim, Germany). The day before infection, 2000 cells were seeded per well in 96-well plate in 50 μl of culture medium. After 24 hours, cells were infected with 50 μl of serum-free medium containing H-1PV or treated with HDAC inhibitors in 7 replicates per condition. The day of measurement, 3 out of 7 wells were incubated for 30 minutes with lysis buffer to estimate the maximum LDH release under conditions of 100% lysis. Afterwards, the plate was centrifuged and 50 μl of supernatant were mixed with the substrate mix. The LDH enzyme catalyzes a colorimetric reaction that is indicative of the amount of enzyme released in the medium. After 30 minutes, the reaction was stopped and analyzed using the Elisa reader MultiScan at 492 nm.
(§3) Cells were seeded in 96 wells plate and then infected with various concentrations of H-1PV in the presence or absence of the HDACI Valproic acid (VPA).

Capan-1 = assay: LDH assay, H-1PV with or without VPA, PDAC cells; conditions: 72 hours, H-1PV at various MOI, FIG. 7
Description: as §1, §2, §3

CCCC(CCC)C(=O)O [VPA, valproic acid]
effect on cellular growth when applied singly [1]: did not have any significant effect | tumour growth (HeLa established tumors): failed to impair tumour growth | cell lysis / cytotoxicity (LDH assay) (AsPC-1): no effect | cell lysis / cytotoxicity (LDH assay) (Capan-1): no effect
